Experimental data from US20210353579A1, “HIGH PENETRATION COMPOSITIONS AND USES THEREOF” (Techfields Pharma Co., Ltd., priority 2006, published 2021).

Legend:
[1] = tested on: rats (SLAC/GK, type 2 diabetes); assay: Blood glucose in type 2 diabetes rats, transdermal; assay type: in vivo, rat; conditions: diabetic rats (SLAC/GK)
Excerpt: (§1) HPPs lower blood glucose level in rat models (SLAC/GK, type 2 diabetes, n=7). 50% acetone solution of diethylaminoethyl acetylsalicylate.acetylsalicylic acid salt (P-1, in acetone); 4-acetamidophenyl salicylyldimethylaminobutyrate.HCl (P-6), diethylaminoethyl 5-(2,4-difluorophenyl) acetylsalicylate.5-(2,4-difluorophenyl).acetylsalicylic acid salt (P-8), diethylaminoethyl salicylsalicylate.AcOH (P-9), diethylaminoethyl salicylate.AcOH (P-10), diethylaminoethyl 5-acetamido-acetylsalicylate (P-58), diethylaminoethyl acetylsalicylsalicylate.acetylsalicylsalicylic acid salt (P-59), diethylaminoethyl acetylsalicylsalicylate.acetylsalicylsalicylsalicylic acid salt (P-60) (equal to of 20 mg/kg of NSAIAs) are administered transdermally to the backs (about 1.5 cm^2) of rats (fur was shaved) once per day (at 8 am) for 5 weeks. The blood glucose levels are measured once every 3 days at 3 pm (no fasting) from the second week to the fifth week (Table 24). The blood lipid levels are measured at the end of the fifth week (Table 25).

[2] = tested on: rats (SLAC/GK, type 2 diabetes); assay: Blood lipid in type 2 diabetes rats, transdermal; assay type: in vivo, rat
Excerpt: as §1

[3] = tested on: rats (SLAC/GK, type 2 diabetes); assay: Blood glucose in type 2 diabetes rats, oral with food; assay type: in vivo, rat
Excerpt: (§2) 20% acetone solution of diethylaminoethyl acetylsalicylate.acetylsalicylic acid salt (P-1, in acetone); 4-acetamidophenyl salicylyldimethylaminobutyrate.HCl (P-6), diethylaminoethyl 5-(2,4-difluorophenyl) acetylsalicylate.5-(2,4-difluorophenyl) acetylsalicylic acid salt (P-8), diethylaminoethyl salicylsalicylate.AcOH (P-9), diethylaminoethyl salicylate.AcOH (P-10), diethylaminoethyl 5-acetamido-acetylsalicylate (P-58), diethylaminoethyl acetylsalicylsalicylate. acetylsalicylsalicylic acid salt (P-59), diethylaminoethyl acetylsalicylsalicylate. acetylsalicylsalicylsalicylic acid salt (P-60) (equal to of 20 mg/kg of NSAIAs) were mixed with food and were orally administered to the rats (SLAC/GK, type 2 diabetes, n=7) with food every day for 5 weeks. The blood glucose levels were measured once every 3 days at 3 pm (no fasting) from the second week to the fifth week. The blood lipid levels were measured at the end of the fifth week.

[4] = tested on: rats (SLAC/GK, type 2 diabetes); assay: Blood lipid in type 2 diabetes rats, oral with food; assay type: in vivo, rat
Excerpt: as §2

[5] = tested on: mice (SLAC:NOD-IDDM, type 1 diabetes); assay: Blood glucose in type 1 diabetes mice, transdermal; assay type: in vivo, mouse
Excerpt: The pro-drugs in this invention lower blood glucose levels in mouse models (SLAC:NOD-IDDM, type 1 diabetes, n=7). 50% acetone solution of diethylaminoethyl acetylsalicylate.acetylsalicylic acid salt (P-1, in acetone); 4-acetamidophenyl salicylyldimethylaminobutyrate.HCl (P-6), diethylaminoethyl 5-(2,4-difluorophenyl) acetylsalicylate.5-(2,4-difluorophenyl) acetylsalicylic acid salt (P-8), diethylaminoethyl salicylsalicylate.AcOH (P-9), diethylaminoethyl salicylate.AcOH (P-10), diethylaminoethyl 5-acetamido-acetylsalicylate (P-58), diethylaminoethyl acetylsalicylsalicylate. acetylsalicylsalicylic acid salt (P-59), diethylaminoethyl acetylsalicylsalicylate. acetylsalicylsalicylsalicylic acid salt (P-60) (equal to of 30 mg/kg of NSAIAs) were administered transdermally to the backs (about 1.5 cm^2) of mice (fur was shaved) once per day (at 8 am) for 7 weeks. The blood glucose levels were measured once every 3 days at 3 pm (no fasting) from the fourth week to the seventh week.

Chinese white rabbits [6] = assay: Autologous blood clot pulmonary embolization, thrombus propagation; assay type: in vivo, rabbit; conditions: 20 mg/kg topically, after 2 days
Procedure: Eighteen Chinese White rabbits weighing between 3.0 and 3.5 kg (aged 6-7 months) were selected and divided into three groups (control, P-1 and […] groups, n=6). One hour before the experiment, thrombi were made by aspirating venous blood (1 ml) into a sterilized bottle to clot. To avoid fragmentation and slow lysis, the autologous blood clots were stabilized in temperature-controlled (70° C.) distilled water for 10 min. After anesthesia, the femoral veins were exposed and distally isolated, and autologous blood clots (0.05 g/kg) were injected through an indwelling catheter (20 GA), which had been placed in the femoral vein isolated earlier. 50% acetone solution of diethylaminoethyl acetylsalicylate.acetylsalicylic acid salt (P-1, in acetone, 20 mg/kg) and diethylaminoethyl acetylsalicylsalicylate. acetylsalicylsalicylic acid salt (P-59, 20 mg/kg) were topically applied to the back of the rabbits. After 2 days, rabbits were euthanized with an excessive intravenous injection of sodium amobarbital (60 mg/kg). The lungs and hearts were isolated to observe whether thrombi were present in the pulmonary arteries. The lungs were immersed in 10% formalin for 24 h. Consecutive transverse sections along the obstructed pulmonary arteries were paraffin-embedded and stained with hematoxylin-eosine. […]

normal rats [7] = assay: Blood glucose in normal rats, transdermal; assay type: in vivo, rat
Excerpt: as §1, with “25). […]” for “25).”

normal rats [8] = assay: Blood glucose in normal rats, oral with food; assay type: in vivo, rat
[9] = 1 hour after 50 mg/kg on the back of sheep, 10% aqueous solution
[10] = tested on: cats with ocular hypertension; assay: Intraocular pressure in cats with ocular hypertension; assay type: in vivo, cat; conditions: group B
Procedure: The ability of diethylaminoethyl acetylsalicylate.HCl to reduce intraocular pressure (IOP) was evaluated in cats with ocular hypertension produced by previously done laser trabeculoplastry. IOP was determined with a pneumatonometer after light corneal anesthesia with dilute proparacaine. 14 Cats were divided into 2 groups. Baseline IOP was determined prior to treatment with the test compound aqueous solution. […] In group B, 30 mg/kg of diethylaminoethyl acetylsalicylate.HCl the area around eye (outside) of cat trice per day for 10 days.

[11] = tested on: Human breast cancer cells (BCAP-37); assay: Human breast cancer xenograft in nude mice, topical; conditions: day 42; 30 μl of 5% (1.5 mg) topically every 8 hours from day 14; control 800 ± 100
In short: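 BCAP-37 tumour tissue (2-3 mm^3) was xenografted subcutaneously into the front leg of nude BALB mice, 7 per group. Compounds were applied topically as 30 μl of 5% solution (1.5 mg) in acetone or water.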

[12] = tested on: Human colon cancer cells (LS174J); assay: Human colon cancer xenograft in nude mice, topical; conditions: day 30, about 30 μl of 5% solution (1.5 mg) topically applied
Excerpt: Human colon cancer cells (LS174J, 2-3 mm^3 of tumor tissue was used in each mouse) are subcutaneously xenografted into the front leg of nude mice (BALB).

Chinese white rabbits [13] = assay: Malassezia-induced lesions similar to psoriasis; assay type: in vivo, rabbit; conditions: 5% aqueous solution twice per day, 10 days after application
Excerpt: Heavy suspensions of Malassezia [Rosenberg, E. W., et al., Mycopathologia, 72, 147-154 (1980)] were applied to the shaved skin on the backs of the Chinese white rabbits (n=4×6) twice (at 7 am and 7 pm) per day for 2 weeks, lesions similar to psoriasis resulted.

mice (MRL/LPR) = assay: Anti-lupus erythematosus activity; assay type: in vivo, mouse; conditions: 30 mg/kg topically twice per day, after 6 weeks
[14] = baseline, equal to 20 mg/kg of NSAIAs
[15] = end of the fifth week, equal to 20 mg/kg of NSAIAs once per day
[16] = end of the fifth week, equal to 20 mg/kg of NSAIAs every day

**Q.** Which results are given for CC(=O)Oc1ccccc1C(=O)Oc1ccccc1C(=O)O.CCN(CC)CCOC(=O)c1ccccc1OC(=O)c1ccccc1OC(C)=O [P-59, diethylaminoethyl acetylsalicylsalicylate.acetylsalicylsalicylic acid salt]?
**A.** Blood glucose, Average ([1]; average second to fifth week, no fasting, equal to 20 mg/kg of NSAIAs once per day for 5 weeks): 8.7 ± 1 mmol/L; Blood glucose, Baseline ([1]; baseline, equal to 20 mg/kg of NSAIAs once per day): 16.3 ± 3 mmol/L; Cholesterol (HDL), Baseline [2, 14]: 1.6 ± 0.2 mmol/L; Cholesterol (total), Baseline [2, 14]: 7.6 ± 0.6 mmol/L; Triglycerides, Baseline [2, 14]: 5.6 ± 0.5 mmol/L; Cholesterol (HDL), Average [2, 15]: 1.6 ± 0.2 mmol/L; Cholesterol (total), Average [2, 15]: 5.1 ± 0.3 mmol/L; Triglycerides, Average [2, 15]: 1.9 ± 0.2 mmol/L; Blood glucose, Diabetic rats, Average ([3]; average second to fifth week, no fasting, equal to 20 mg/kg of NSAIAs every day for 5 weeks): 8.6 ± 1 mmol/L; Blood glucose, Diabetic rats, Baseline [3, 14]: 15.3 ± 3 mmol/L; Cholesterol (HDL), Baseline [4, 14]: 1.9 ± 0.2 mmol/L; Cholesterol (total), Baseline [4, 14]: 7.7 ± 0.6 mmol/L; Triglycerides, Baseline [4, 14]: 5.4 ± 0.6 mmol/L; Cholesterol (HDL), Average [4, 16]: 1.8 ± 0.2 mmol/L; Cholesterol (total), Average [4, 16]: 5.7 ± 0.3 mmol/L; Triglycerides, Average [4, 16]: 2.7 ± 0.2 mmol/L; Blood glucose, Average ([5]; average fourth to seventh week, no fasting, equal to 30 mg/kg of NSAIAs once per day for 7 weeks): 8.7 ± 1 mmol/L; Blood glucose, Baseline ([5]; baseline, equal to 30 mg/kg of NSAIAs): 24.3 ± 3 mmol/L; lung tissue and vascular walls (thrombus propagation) (Chinese white rabbits [6]): both lung tissue and vascular walls were normal; Blood glucose, Average (normal rats [7]; normal rats (second Average line of Table 24), average second to fifth week, equal to 20 mg/kg of NSAIAs once per day): 7.3 ± 1 mmol/L; Blood glucose, Baseline (normal rats [7]; normal rats (second Baseline line of Table 24), baseline, equal to 20 mg/kg of NSAIAs): 7.2 ± 1 mmol/L; Blood glucose, Normal rats, Average (normal rats [8]; average second to fifth week, equal to 20 mg/kg of NSAIAs every day): 7.3 ± 1 mmol/L; Blood glucose, Normal rats, Baseline (normal rats [8]; [14]): 7.5 ± 1 mmol/L

**Q.** For CCN(CC)CCOC(=O)C(C)c1ccc(CC(C)C)cc1.O=C(O)CC(O)(CC(=O)O)C(=O)O (stereo not shown) [diethylaminoethyl 2-(ρ-isobutylphenyl)propionate. citric acid salt], which “ibuprofen found in the milk” value [9] is on record?
**A.** Its value is 55 ± 8 µg/mL.

**Q.** And the “ibuprofenamine found in the milk” value [9]?
**A.** Its value is 10 ± 5 µg/mL.

**Q.** Which results are given for CCN(CC)CCOC(=O)c1ccccc1OC(C)=O.Cl [diethylaminoethyl acetylsalicylate•HCl]?
**A.** Intraocular pressure, Base-line ([10]; base-line, prior to treatment, 30 mg/kg around the eye): 24.1 ± 0.7; Intraocular pressure, End of treatment (day10) ([10]; day 10, 30 mg/kg applied to the area around the eye for 10 days): 16.1 ± 0.5

**Q.** With CC(=O)O.CC(C)Cc1ccc(C(C)C(=O)OCC2CCCNC2)cc1 (stereo not shown) [P-5, 3-piperidinemethyl 2-(ρ-isobutylphenyl) propionate.AcOH] as the compound, how does the Tumor size [11] read?
**A.** Its Tumor size is 190 ± 50 mm^3.

**Q.** And the Tumor size [12]?
**A.** The Tumor size was 390 ± 110 mm^3.

**Q.** What about the “lesions similar to psoriasis” value (Chinese white rabbits [13]) of the same compound?
**A.** The value was “the lesions were resolved”.

**Q.** And the “skin lesions and lupus nephritis” value (mice (MRL/LPR))?
**A.** The value was “all skin lesions and lupus nephritis were resolved”.
